Reference: ChEMBL document CHEMBL6127050, “Simultaneous inhibition of FLT3 and HDAC by novel 6-ethylpyrazine-2-Carboxamide derivatives provides therapeutic advantages in acute myelocytic leukemia” (Eur J Med Chem, 2024)
The source made the active and inactive calls. No cut-off for these calls is given here.

Experiments:
[1] = test system: MOLM-13; assay: Induction of apoptosis in human MOLM-13 cells assessed as early apoptotic cells at 0.1 uM incubated for 48 hrs in presence of gilteritinib by Annexin V-FITC staining based flow cytometry analysis (reference value: 4.07 %); format: functional
[2] = test system: MOLM-13; assay: Induction of cell cycle arrest in human MOLM-13 cells assessed as accumulation of cells at G0/G1 phase at 0.05 uM measured for 48 hrs by PI/RNase staining based flow cytometric analysis (reference value: 46.24 %); format: functional
[3] = test system: MOLM-13; assay: Induction of cell cycle arrest in human MOLM-13 cells assessed as accumulation of cells at G2M phase at 0.05 uM measured for 48 hrs in presence of gilteritinib by PI/RNase staining based flow cytometric analysis (reference value: 10.81%); format: functional
[4] = Toxicity in BALB/c mouse xenografted with human MOLM-13 cells assessed as body weight loss at 30 mg/kg, IG qd administered 5 days a week and measured on day 9 in presence of gilteritinib; format: organism-based; details: in vivo, po, 216 h, time 9 day
[5] = Cytotoxicity against HEK293T cells incubated for 48 hrs; format: toxicity, cell-based, HEK-293T; details: human
[6] = test system: MOLM-13; assay: Induction of cell cycle arrest in human MOLM-13 cells assessed as accumulation of cells at G2M phase at 0.05 uM measured for 48 hrs by PI/RNase staining based flow cytometric analysis (reference value: 10.81%); format: functional
[7] = test system: MOLM-13; assay: Induction of apoptosis in human MOLM-13 cells assessed as viable cells at 0.1 uM incubated for 48 hrs by Annexin V-FITC staining based flow cytometry analysis (reference value: 94.5 %); format: functional
[8] = test system: MOLM-13; assay: Induction of apoptosis in human MOLM-13 cells assessed as viable cells at 0.1 uM incubated for 48 hrs in presence of gilteritinib by Annexin V-FITC staining based flow cytometry analysis (reference value: 94.5 %); format: functional
[9] = Toxicity in BALB/c mouse xenografted with human MOLM-13 cells assessed as lung damage at 30 mg/kg, IG qd administered 5 days a week and measured on day 9 in presence of gilteritinib by H and E staining based analysis; format: organism-based; details: in vivo, po, 216 h, time 9 day
[10] = test system: MOLM-13; assay: Induction of cell cycle arrest in human MOLM-13 cells assessed as accumulation of cells at S-phase at 0.05 uM measured for 48 hrs in presence of gilteritinib by PI/RNase staining based flow cytometric analysis (reference value: 42.95%); format: functional
[11] = test system: MOLM-13; assay: Induction of apoptosis in human MOLM-13 cells assessed as necrotic at 0.1 uM incubated for 48 hrs by Annexin V-FITC staining based flow cytometry analysis (reference value: 0.013 %); format: functional
[12] = Toxicity in NOD/SCID mouse xenografted with human MOLM-13 cells assessed as increase in survival rate at 60 mg/kg, IG administered 5 days per week in presence of gilteritinib by Kaplan Mayer survival analysis; format: organism-based; details: in vivo, po, 120 h, time 5 day
[13] = test system: MOLM-13; assay: Induction of apoptosis in human MOLM-13 cells assessed as late apoptotic cells at 0.1 uM incubated for 48 hrs in presence of gilteritinib by Annexin V-FITC staining based flow cytometry analysis (reference value: 1.40 %); format: functional
[14] = test system: MOLM-13; assay: Induction of cell cycle arrest in human MOLM-13 cells assessed as accumulation of cells at S-phase at 0.05 uM measured for 48 hrs by PI/RNase staining based flow cytometric analysis (reference value: 42.95%); format: functional
[15] = test system: MOLM-13; assay: Induction of cell cycle arrest in human MOLM-13 cells assessed as accumulation of cells at G0/G1 phase at 0.05 uM measured for 48 hrs in presence of gilteritinib by PI/RNase staining based flow cytometric analysis (reference value: 46.24 %); format: functional
[16] = test system: MOLM-13; assay: Induction of apoptosis in human MOLM-13 cells assessed as late apoptotic cells at 0.1 uM incubated for 48 hrs by Annexin V-FITC staining based flow cytometry analysis (reference value: 1.40 %); format: functional
[17] = test system: MOLM-13; assay: Induction of apoptosis in human MOLM-13 cells assessed as early apoptotic cells at 0.1 uM incubated for 48 hrs by Annexin V-FITC staining based flow cytometry analysis (reference value: 4.07 %); format: functional
[18] = test system: MOLM-13; assay: Induction of apoptosis in human MOLM-13 cells assessed as necrotic cells at 0.1 uM incubated for 48 hrs in presence of gilteritinib by Annexin V-FITC staining based flow cytometry analysis (reference value: 0.013 %); format: functional
[19] = test system: MOLM-13; assay: Induction of apoptosis in human MOLM-13 cells assessed as caspase-3 activation; format: functional, cell-based; details: dose 0.1 µM
[20] = test system: Mitochondrial membrane; assay: Induction of mitochondrial membrane potential depolarization in human MOLM-13 cells; format: cell membranes; details: dose 0.1 µM
[21] = Toxicity in BALB/c mouse xenografted with human MOLM-13 cells assessed as kidney damage at 10 mg/kg, IG qd administered 5 days a week and measured on day 9 by H and E staining based analysis; format: organism-based; details: in vivo, po, 216 h, time 9 day
[22] = Toxicity in BALB/c mouse xenografted with human MOLM-13 cells assessed as body weight loss at 10 mg/kg, IG qd administered 5 days a week and measured on day 9; format: organism-based; details: in vivo, po, 216 h, time 9 day
[23] = test system: THP-1; assay: Antiproliferative activity against human THP-1 cells incubated for 48 hrs; details: THP-1, 48 h
[24] = test system: MOLM-13; assay: Inhibition of STAT5 phosphorylation in human MOLM-13 cells at 0.01 to 0.1 microM by Western blot analysis; format: cell-based; details: dose 0.01-0.1 µM
[25] = Metabolic stability in mouse liver microsome incubated upto 120 mins in presence of NADPH by HPLC analysis; format: ADME; details: microsomes, 2 h
[26] = test system: MOLM-13; assay: Inhibition of ERK1/2 phosphorylation in human MOLM-13 cells at 0.1 microM by Western blot analysis; format: cell-based
[27] = test system: KG-1; assay: Antiproliferative activity against human KG-1 cells incubated for 48 hrs; details: KG-1, 48 h
[28] = test system: MOLM-13; assay: Antiproliferative activity against human MOLM-13 cells incubated for 48 hrs; details: MOLM-13, 48 h
[29] = Toxicity in BALB/c mouse xenografted with human MOLM-13 cells assessed as lung damage at 10 mg/kg, IG qd administered 5 days a week and measured on day 9 by H and E staining based analysis; format: organism-based; details: in vivo, po, 216 h, time 9 day
[30] = molecular target: Receptor-type tyrosine-protein kinase FLT3 (Homo sapiens) (UniProt P36888); assay: Inhibition of FLT3 phosphorylation in human MOLM-13 cells at 0.001 to 0.1 microM by Western blot analysis; format: cell-based; details: dose 0.001-0.1 µM
[31] = test system: MOLM-13; assay: Antitumor activity against human MOLM-13 cells xenografted BALB/c mouse assessed as tumor growth inhibition at 10 mg/kg, IG qd administered 5 days a week and measured on day 9; format: functional; details: MOLM-13, po, 216 h, time 9 day, read-out: TGI
[32] = Stability in mouse plasma incubated upto 24 hrs by HPLC analysis; format: ADME, cell-free
[33] = test system: MOLM-13; assay: Antitumor activity against human MOLM-13 cells xenografted BALB/c mouse assessed as reduction in tumor volume at 10 mg/kg, IG qd administered 5 days a week and measured on day 9; format: functional, organism-based; details: time 9.0 day
[34] = molecular target: T1, Receptor-type tyrosine-protein kinase FLT3 (Homo sapiens, UniProt P36888); assay: Inhibition of FLT3 (unknown origin) incubated for 40 mins in presence of ATP by kinase-glo plus luminescence assay
T1 sequence (P36888 whole entry): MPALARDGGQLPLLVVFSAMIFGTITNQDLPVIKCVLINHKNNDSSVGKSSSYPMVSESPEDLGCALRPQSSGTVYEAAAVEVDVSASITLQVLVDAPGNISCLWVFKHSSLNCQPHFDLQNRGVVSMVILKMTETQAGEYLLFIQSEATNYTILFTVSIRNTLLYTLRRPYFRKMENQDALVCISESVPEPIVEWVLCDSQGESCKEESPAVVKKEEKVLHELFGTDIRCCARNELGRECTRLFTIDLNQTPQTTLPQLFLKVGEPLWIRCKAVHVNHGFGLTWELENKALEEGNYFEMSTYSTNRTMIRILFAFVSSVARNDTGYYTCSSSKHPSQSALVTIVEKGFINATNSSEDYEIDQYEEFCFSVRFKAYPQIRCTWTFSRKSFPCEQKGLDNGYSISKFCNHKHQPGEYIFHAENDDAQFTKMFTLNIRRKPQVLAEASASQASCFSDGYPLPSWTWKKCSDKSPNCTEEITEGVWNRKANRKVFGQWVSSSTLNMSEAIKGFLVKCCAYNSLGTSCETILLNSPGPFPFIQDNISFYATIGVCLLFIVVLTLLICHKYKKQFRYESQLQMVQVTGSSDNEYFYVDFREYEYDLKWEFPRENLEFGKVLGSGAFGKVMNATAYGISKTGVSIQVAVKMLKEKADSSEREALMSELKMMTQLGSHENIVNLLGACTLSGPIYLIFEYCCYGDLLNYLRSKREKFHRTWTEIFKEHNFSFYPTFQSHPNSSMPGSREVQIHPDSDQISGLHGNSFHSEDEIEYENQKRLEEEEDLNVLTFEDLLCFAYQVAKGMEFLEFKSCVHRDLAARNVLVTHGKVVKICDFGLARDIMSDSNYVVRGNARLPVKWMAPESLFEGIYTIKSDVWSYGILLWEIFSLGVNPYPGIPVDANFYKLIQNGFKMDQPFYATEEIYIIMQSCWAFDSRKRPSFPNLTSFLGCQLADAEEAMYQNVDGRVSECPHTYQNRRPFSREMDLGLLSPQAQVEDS

[35] = test system: K562; assay: Antiproliferative activity against human K562 cells incubated for 48 hrs; details: K562, 48 h
[36] = test system: MOLM-13; assay: Inhibition of ERK1/2 phosphorylation in human MOLM-13 cells at 0.01 to 0.1 microM by Western blot analysis; format: cell-based; details: dose 0.01-0.1 µM

In the case of `O=C(CCCCCCC(=O)Nc1ccccc1)NO` [VORINOSTAT], the Activity [1] is reported as 35%, the Activity [2] is reported as 49.16% and the Activity [3] is reported as 7.24%. The Activity [4] was “Non-Toxic”, the IC50 at 48 h [5] was 2210 nM and the Activity [6] was 7.58%. The Activity [7] was 83%, the Activity [8] was 46.8% and the Activity [9] was “Non-Toxic”. For the same molecule, the Activity [10] was 28.26%, the Activity [11] was 0.18% and the Activity [12] was “Non-Toxic”. It also gave an Activity [13] of 17.4%, an Activity [14] of 43.26% and an Activity [15] of 64.51%. For the same molecule, the Activity [16] was 2.01%, the Activity [17] was 14.8% and the Activity [18] was 0.88%.
With `CCc1nc(C(N)=O)c(Nc2ccc(N3CCN(CCCCCCCC(=O)NO)CC3)c(OC)c2)nc1NC1CCOCC1` the Activity [19] was “Dose-Dependent Effect”, the Activity [2] was 75.85% and the IC50 at 48 h [5] was 3050 nM. For the same molecule, the Activity [20] was “Dose-Dependent Effect”, the Activity [21] was “Non-Toxic” and the Activity [22] was “Non-Toxic”. For the same molecule, the Activity [6] was 4.12%, the viability at 0.1 µM ([7]; Homo sapiens, MOLM-13, read-out: Activity) was 39.4% and the Activity [11] was 0.54%. For the same molecule, the IC50 [23] was 650 nM, the inhibition [24] was “Active” and the Stability [25] was “Stable”. For the same molecule, the inhibition [26] was “Active”, the IC50 [27] was 660 nM and the IC50 [28] was 8 nM. The Activity [29] was “Non-Toxic”, the inhibition [30] was “Active” and the Activity [14] was 20.04%. The inhibition in vivo at 10 mg/kg [31] was 65.3%, the Stability [32] was “Stable” and the Activity [33] was “Active”. It also gave an Activity [16] of 16.6%, an Activity [17] of 43.5% and an IC50 [34] of 0.6 nM. For the same molecule, the IC50 [35] was 490 nM and the inhibition [36] was “Active”.
